According to the CheMixHub viscosity set:

Assay: xn = mol fraction of the nth substance listed

CS(C)=O + OCCO
viscosity [mPa·s]
Settings	298.15 K	303.15 K	308.15 K
100 kPa, x1 = 0.105	12.96	10.76	8.98
100 kPa, x1 = 0.1987	10.61	8.91	7.45
100 kPa, x1 = 0.2971	8.58	7.31	6.14
100 kPa, x1 = 0.3911	6.94	5.97	5.09
100 kPa, x1 = 0.5099	5.28	4.59	4.03
100 kPa, x1 = 0.5932	4.45	3.93	3.46
100 kPa, x1 = 0.702	3.68	3.26	2.91
100 kPa, x1 = 0.7931	3.21	2.86	2.58
100 kPa, x1 = 0.9003	2.74	2.46	2.21
101 kPa, x1 = 0.0799	–	–	10.2
101 kPa, x1 = 0.206	–	–	9.506
101 kPa, x1 = 0.3426	–	–	8.715
101 kPa, x1 = 0.4387	–	–	8.143
101 kPa, x1 = 0.5397	–	–	7.399
101 kPa, x1 = 0.6459	–	–	6.235
101 kPa, x1 = 0.7517	–	–	4.953
101 kPa, x1 = 0.8456	–	–	3.731
101 kPa, x1 = 0.9271	–	–	2.599
101 kPa, x2 = 0.0621	2.42	2.19	1.98
101 kPa, x2 = 0.1227	3.05	2.66	2.43
101 kPa, x2 = 0.1819	4.26	3.66	3.21
101 kPa, x2 = 0.2394	5.61	4.72	4.02
101 kPa, x2 = 0.2958	7.14	5.91	4.88
101 kPa, x2 = 0.3504	8.45	7.01	5.72
101 kPa, x2 = 0.404	9.69	7.96	6.43
101 kPa, x2 = 0.4562	10.8	8.81	–
101 kPa, x2 = 0.5076	11.7	9.54	–
101 kPa, x2 = 0.5568	12.6	10.2	–
101 kPa, x2 = 0.6061	13.3	10.7	–
101 kPa, x2 = 0.6537	14	11.2	–
101 kPa, x2 = 0.7004	14.6	11.6	–
101 kPa, x2 = 0.7461	15.1	12	–
101 kPa, x2 = 0.7906	15.5	12.4	–
101 kPa, x2 = 0.8342	16	12.8	–
101 kPa, x2 = 0.8769	16.5	13.1	–
101 kPa, x2 = 0.9189	16.9	13.4	–
101 kPa, x2 = 0.9599	17.3	13.7	–
